Test results: patent US20220048895A1, “SUBSTITUTED BENZAZEPINE COMPOUNDS, CONJUGATES, AND USES THEREOF” (SILVERBACK THERAPEUTICS, INC., priority 2018, published 2022)

system: Human peripheral blood mononuclear cells (PBMC); experiment: PBMC screening assay: TNF-α in supernatant by ELISA or HTRF; format: cell-based; details: TNF-α activity in supernatant of human PBMC, 24 hours incubation, 1000 to 0.000238 nM
Experimental: Materials and general procedures. Human peripheral blood mononuclear cells (PBMC) were obtained from BenTek, frozen at 25×10^6 cell/mL in 10% DMSO (Sigma) prepared in fetal bovine serum (Gibco) and stored in liquid nitrogen. For the culture, PBMC were thawed quickly in a 37° C. water bath and diluted into pre-warmed RPMI 1640 (Lonza) supplemented with 10% fetal bovine serum, 2 mM glutamine, […] (all from Gibco) and centrifuged for 5 minutes at 500×g. PBMC were suspended into the growth media described above and cultured at a concentration of 1×10^6 cells per mL at 37° C. in a 5% CO2 incubator.
General procedure for in vitro small molecule screening. PBMC were thawed, suspended at a concentration of 1×10^6 cell/mL in growth media and 200 μL was aliquoted into each well of a 96-well plate for a total of 0.2×10^6 cells per well. PBMC were incubated for approximately 16-18 hours at 37° C. in a 5% CO2 humidified incubator. PBMC plates were centrifuged at 500×g for 5 minutes and the growth media was removed. 150 μL of twelve concentrations ranging from 1000 to 0.000238 nM of small molecules prepared in growth media were added to PBMC in duplicate and incubated for 24 hours at 37° C. in a 5% CO2 incubator. Prior to supernatant harvest, cells were spun at 500×g for 5 minutes to remove cell debris. TNF-α activity was assessed in the supernatant by ELISA (eBioscience) or HTRF (CisBio) per the manufacturer's instructions. The optical density at 450 nm and 570 nm (ELISA) or […] (HTRF) was analyzed using an Envision (Perkin Elmer) plate reader, as shown in Table 2.

SMILES | EC50 [nM]
CCCN(CCC)C(=O)C1=Cc2ccc(-c3ccc(C(=O)N4CCNC(c5ccccc5)C4)cc3)cc2N=C(N)C1 (centres unmarked) [Compound 1.1, 2-amino-8-(4-(3-phenylpiperazine-1-carbonyl)phenyl)-N,N-dipropyl-3H-benzo[b]azepine-4-carboxamide] | < 50
CCCN(CCC)C(=O)C1=Cc2ccc(-c3ccc(C(=O)N4CCCC(CO)C4)cc3)cc2N=C(N)C1 (centres unmarked) [Compound 1.6, 2-amino-8-(4-(3-(hydroxymethyl)piperidine-1-carbonyl)phenyl)-N,N-dipropyl-3H-benzo[b]azepine-4-carboxamide] | 50 to 500
CCCN(CCC)C(=O)C1=Cc2ccc(-c3ccc(C(=O)N4CCC(CO)(c5ccccc5)CC4)cc3)cc2N=C(N)C1 [Compound 1.7, 2-amino-8-(4-(4-(hydroxymethyl)-4-phenylpiperidine-1-carbonyl)phenyl)-N,N-dipropyl-3H-benzo[b]azepine-4-carboxamide] | > 500
CCCN(CCC)C(=O)C1=Cc2ccc(-c3ccc(C(=O)N4CCN[C@@H](c5ccccc5)C4)cc3)cc2N=C(N)C1 [Compound 1.3, (S)-2-amino-8-(4-(3-phenylpiperazine-1-carbonyl)phenyl)-N,N-dipropyl-3H-benzo[b]azepine-4-carboxamide] | < 50
CCCN(CCC)C(=O)C1=Cc2ccc(-c3ccc(C(=O)N4CCN[C@H](c5ccccc5)C4)cc3)cc2N=C(N)C1 [Compound 1.2, (R)-2-amino-8-(4-(3-phenylpiperazine-1-carbonyl)phenyl)-N,N-dipropyl-3H-benzo[b]azepine-4-carboxamide] | < 50
CCCN(CCC)C(=O)C1=Cc2ccc(-c3ccc(C(=O)N4CCC(O)(c5ccccc5)C4)cc3)cc2N=C(N)C1 (centres unmarked) [Compound 1.9, 2-amino-8-(4-(3-hydroxy-3-phenylpyrrolidine-1-carbonyl)phenyl)-N,N-dipropyl-3H-benzo[b]azepine-4-carboxamide] | 50 to 500
CCCN(CCC)C(=O)C1=Cc2ccc(-c3ccc(C(=O)N4CCCC4c4ccccc4)cc3)cc2N=C(N)C1 (centres unmarked) [Compound 1.10, 2-amino-8-(4-(2-phenylpyrrolidine-1-carbonyl)phenyl)-N,N-dipropyl-3H-benzo[b]azepine-4-carboxamide] | 50 to 500
CCCN(CCC)C(=O)C1=Cc2ccc(-c3ccc(C(=O)N4CCCC4CO)cc3)cc2N=C(N)C1 (centres unmarked) [Compound 1.11, 2-amino-8-(4-(2-(hydroxymethyl)pyrrolidine-1-carbonyl)phenyl)-N,N-dipropyl-3H-benzo[b]azepine-4-carboxamide] | 50 to 500
CCCN(CCC)C(=O)C1=Cc2ccc(-c3ccc(C(=O)N4CCC(O)(c5ccccc5)CC4)cc3)cc2N=C(N)C1 [Compound 1.5, 2-amino-8-(4-(4-hydroxy-4-phenylpiperidine-1-carbonyl)phenyl)-N,N-dipropyl-3H-benzo[b]azepine-4-carboxamide] | 50 to 500
CCCN(CCC)C(=O)C1=Cc2ccc(-c3ccc(C(=O)N4CCN(c5ccccc5)CC4)cc3)cc2N=C(N)C1 [Compound 1.4, 2-amino-8-(4-(4-phenylpiperazine-1-carbonyl)phenyl)-N,N-dipropyl-3H-benzo[b]azepine-4-carboxamide] | 50 to 500
CCCN(CCC)C(=O)C1=Cc2ccc(-c3ccc(C(=O)N4CCc5ccccc5C4)cc3)cc2N=C(N)C1 [Compound 1.8, 2-amino-N,N-dipropyl-8-(4-(1,2,3,4-tetrahydroisoquinoline-2-carbonyl)phenyl)-3H-benzo[b]azepine-4-carboxamide] | > 500
